This data set relates to GENE-TOX genotoxicity assays, various organisms and cells. In words: GENE-TOX mutagenicity studies. To be noted: for call: Assay Type: In vivo carcinogenicity studies.
The mark [1] stands for this setting: Species/Cell Type: Drosophila melanogaster, Assay Type: Sex-linked recessive lethal gene mutation, Assay Code: SRLT, Evaluation Type: Evaluation A (Pre-1980).
Where [2] appears, read: Species/Cell Type: Human lymphocytes, Assay Type: Sister-chromatid exchange (SCE) in vitro, Assay Code: SCLT, Evaluation Type: Evaluation B (Post-1980).
The mark [3] stands for this setting: Species/Cell Type: Human, Assay Type: Sister-chromatid exchange (SCE) in vitro, Assay Code: SC1+, Evaluation Type: Evaluation B (Post-1980).
Setting [4] is: Species/Cell Type: Salmonella typhimurium, Assay Type: Forward and reverse gene mutation, host-mediated assay, Assay Code: HMA-, Evaluation Type: Evaluation A (Pre-1980).
[5] abbreviates: Species/Cell Type: Syrian hamster embryo (SA7/SHE) cells, Assay Type: Cell transformation, viral enhanced, Assay Code: CT7+, Evaluation Type: Evaluation A (Pre-1980).
[6] abbreviates: Species/Cell Type: Syrian hamster embryo (SHE) cells, Assay Type: Cell transformation, clonal assay, Assay Code: CTC-, Evaluation Type: Evaluation A (Pre-1980).
[7] abbreviates: Species/Cell Type: Drosophila melanogaster, Assay Type: Sex-linked recessive lethal gene mutation, Assay Code: SRL+, Evaluation Type: Evaluation A (Pre-1980).
Setting [8] is: Species/Cell Type: Mammalian polychromatic erythrocytes, Assay Type: Micronucleus test, chromosome aberrations, Assay Code: MNT+, Evaluation Type: Evaluation B (Post-1980).
Where [9] appears, read: Species/Cell Type: Nonhuman, Assay Code: CCG+, Evaluation Type: Evaluation A (Pre-1980).
Where [10] appears, read: Species/Cell Type: Salmonella typhimurium (one or more of the five standard strains: TA98, TA100, TA1535, TA1537, and TA1538), Assay Type: Histidine reverse gene mutation, Ames assay, Assay Code: SAL+, Evaluation Type: Evaluation A (Pre-1980).
The mark [11] stands for this setting: Species/Cell Type: Salmonella typhimurium (one or more of the five standard strains: TA98, TA100, TA1535, TA1537, and TA1538), Assay Type: Histidine reverse gene mutation, Ames assay, Assay Code: SALT, Evaluation Type: Evaluation A (Pre-1980).
Setting [12] is: Species/Cell Type: Mammalian polychromatic erythrocytes, Assay Type: Micronucleus test, chromosome aberrations, Assay Code: MNTT, Evaluation Type: Evaluation A (Pre-1980).
The mark [13] stands for this setting: Species/Cell Type: Mouse, Sex: Male, Assay Type: Sperm morphology, Assay Code: SPI-, Evaluation Type: Evaluation A (Pre-1980).

Each structure is given as a SMILES string. Active and inactive are the calls of the source. How the calls were made is not given here.

Consider `O=c1[nH]c(=O)n([C@H]2C[C@H](O)[C@@H](CO)O2)cc1F`, for which the mutagenic call by setting is: (Species/Cell Type: Aspergillus nidulans, Assay Type: Aneuploidy, chromosome aberrations, Assay Code: ASNT, Evaluation Type: Evaluation A (Pre-1980)) “no conclusion”; (Species/Cell Type: Aspergillus nidulans, Assay Type: Mitotic recombination, Assay Code: ASG+, Evaluation Type: Evaluation A (Pre-1980)) “active; positive”; (Species/Cell Type: Chinese hamster lung (V79) cells, Assay Type: Forward gene mutation at the HPRT or ouabain locus, Assay Code: V79-, Evaluation Type: Evaluation A (Pre-1980)) “inactive; negative”; (Species/Cell Type: Drosophila melanogaster, Assay Type: Aneuploidy, sex chromosome gain, chromosome aberrations, Assay Code: DAG+F, Evaluation Type: Evaluation A (Pre-1980)) “active; positive”; (Species/Cell Type: Drosophila melanogaster, Assay Type: Aneuploidy, whole sex chromosome loss, chromosome aberrations, Assay Code: DAC+F, Evaluation Type: Evaluation A (Pre-1980)) “active; positive”; under setting [1], “no conclusion”. In addition, the mutagenic call is, setting by setting: (Species/Cell Type: Escherichia coli polA (W3119 vs P3478), Assay Type: Rec-assay, DNA effects (bacterial DNA repair), Assay Code: RE1-, Evaluation Type: Evaluation A (Pre-1980)) “inactive; negative”; (Species/Cell Type: Glycine max (soybean), Assay Type: Gene mutation, Assay Code: GLM+, Evaluation Type: Evaluation A (Pre-1980)) “active; positive”; (Species/Cell Type: Human diploid fibroblasts, Assay Type: Unscheduled DNA synthesis (UDS) in vitro, DNA effects, Assay Code: UDH-, Evaluation Type: Evaluation A (Pre-1980)) “inactive; negative”; under setting [2], “no conclusion”; under setting [3], “active; positive”; (Species/Cell Type: Mammalian polychromatic erythrocytes, Assay Type: Micronucleus test, chromosome aberrations, Assay Code: MNT+U, Dose Response: Unconfirmed positive response, Evaluation Type: Evaluation B (Post-1980)) “active; positive”. Also, the mutagenic call was “active; positive” (Species/Cell Type: Mouse (C3H/10T1/2) cells, Assay Type: Cell transformation, Assay Code: CTH+, Evaluation Type: Evaluation A (Pre-1980)); “inactive; negative” (Species/Cell Type: Neurospora crassa, Assay Type: Aneuploidy, chromosome aberrations, Assay Code: NEN-, Evaluation Type: Evaluation A (Pre-1980)); “active; positive” (Species/Cell Type: Nonhuman, Assay Type: Sister-chromatid exchange (SCE) in vitro, Assay Code: SC2+, Evaluation Type: Evaluation B (Post-1980)); “active; positive” (Species/Cell Type: Saccharomyces cerevisiae, Assay Type: Mitotic recombination or gene conversion, Assay Code: YEH+, Evaluation Type: Evaluation A (Pre-1980)); “inactive; negative” under setting [4]; “active; positive” under setting [5]. For the same compound, the mutagenic call by setting is: under setting [6], “inactive; negative”; (Species/Cell Type: Vicia faba, Assay Type: Chromosome aberrations, Assay Code: VIC+, Evaluation Type: Evaluation A (Pre-1980)) “active; positive”. The call (Species/Cell Type: Nonhuman, Assay Code: CCGT, Evaluation Type: Evaluation A (Pre-1980)) is recorded as “no conclusion”.
Consider `C=CCOc1nc2c(c(=O)n(C)c(=O)n2C)n1C`, for which, where the note is “Species/Cell Type: Allium cepa, Assay Type: Chromosome aberrations, Assay Code: ALC+D, Dose Response: With dose response, Evaluation Type: Evaluation A (Pre-1980)”, the mutagenic call was “active; positive”.
For `O=P(OCC(Br)CBr)(OCC(Br)CBr)OCC(Br)CBr` (stereo not given), the mutagenic call was “active; positive” (Species/Cell Type: Chinese hamster lung (V79) cells, Assay Type: Forward gene mutation, host-mediated assay, Assay Code: HMG+, Evaluation Type: Evaluation A (Pre-1980)); “active; positive” under setting [7]; “active; positive” (Species/Cell Type: Drosophila melanogaster, Sex: Male, Assay Type: Heritable translocation test, chromosome aberrations, Assay Code: DHT+, Evaluation Type: Evaluation A (Pre-1980)); “active; positive” under setting [3]; “active; positive” under setting [8]; “active; positive” (Species/Cell Type: Mouse, Sex: Male, Assay Type: Sperm morphology, Assay Code: SPI+, Evaluation Type: Evaluation A (Pre-1980)). Also, the mutagenic call (Species/Cell Type: Nonhuman, Assay Type: Sister-chromatid exchange (SCE) in vitro, Assay Code: SC2+D, Dose Response: With dose response, Evaluation Type: Evaluation A (Pre-1980)) was “active; positive”; the mutagenic call (Species/Cell Type: Nonhuman, Assay Type: Sister-chromatid exchange (SCE) in vivo, Assay Code: SC3+D, Dose Response: With dose response, Evaluation Type: Evaluation A (Pre-1980)) is “active; positive”; the mutagenic call under setting [10] was “active; positive”. Moreover, the call under setting [9] was “active; positive”.
For `CCC[N+](=O)[O-]`, the mutagenic call (Species/Cell Type: Mammalian polychromatic erythrocytes, Assay Type: Micronucleus test, chromosome aberrations, Assay Code: MNTT, Evaluation Type: Evaluation B (Post-1980)) was “no conclusion”.
With `CCCCNc1ccc(C(=O)OCCN(C)C)cc1`, the mutagenic call under setting [11] was “no conclusion”.
As for `NC=O`, the mutagenic call (Species/Cell Type: Fischer rat embryo (RLV/1706) cells, Assay Type: Cell transformation, viral enhanced, Assay Code: CTR-, Evaluation Type: Evaluation A (Pre-1980)) is “inactive; negative” and the mutagenic call (Species/Cell Type: Hordeum vulgare (barley), Assay Type: Chromosome aberrations, Assay Code: HOC+, Evaluation Type: Evaluation A (Pre-1980)) was “active; positive”.
With `c1cc2ccc3ccc4c5c(c6c(c1CCC6)c2c35)CCC4`, the mutagenic call under setting [11] is listed as “no conclusion”.
Take `[Be]`: the call under setting [9] is “active; positive”.
For the compound `O=C(O)CCC(=O)OC[C@@H](NC(=O)C(Cl)Cl)[C@H](O)c1ccc([N+](=O)[O-])cc1`, the mutagenic call is “no conclusion” under setting [12] and “inactive; negative” under setting [13].
For `Oc1c(Cl)c(Cl)c(Cl)c(Cl)c1Cl`, the mutagenic call was “active; positive” (Species/Cell Type: Bacillus subtilis (H17 vs M45), Assay Type: Rec-assay, spot test, DNA effects (bacterial DNA repair), Assay Code: REW+, Evaluation Type: Evaluation A (Pre-1980)); “no conclusion” under setting [1]; “inactive; negative” (Species/Cell Type: Mouse, Sex: Female, Assay Type: Spot test, gene mutation, Assay Code: MST-, Evaluation Type: Evaluation A (Pre-1980)); “active; positive” (Species/Cell Type: Saccharomyces cerevisiae, Assay Type: Forward gene mutation, Assay Code: YEF+, Evaluation Type: Evaluation A (Pre-1980)); “active; positive” (Species/Cell Type: Saccharomyces cerevisiae, Assay Type: Mitotic recombination or gene conversion, Assay Code: YEC+, Evaluation Type: Evaluation A (Pre-1980)); “inactive; negative” (Species/Cell Type: Saccharomyces cerevisiae, Assay Type: Mitotic recombination or gene conversion, Assay Code: YEH-, Evaluation Type: Evaluation A (Pre-1980)). The mutagenic call (Species/Cell Type: Salmonella typhimurium (one or more of the five standard strains: TA98, TA100, TA1535, TA1537, and TA1538), Assay Type: Histidine reverse gene mutation, Ames assay, Assay Code: SAL-, Evaluation Type: Evaluation A (Pre-1980)) is “inactive; negative”; the mutagenic call under setting [4] is “inactive; negative”; the mutagenic call under setting [5] was “active; positive”.
Regarding `NCCCCNCCCN`, the mutagenic call under setting [11] is reported as “no conclusion”.
For the compound `CCC1(c2ccccc2)C(=O)NC(=O)NC1=O`, the mutagenic call reads like this: (Species/Cell Type: Human lymphocytes, Assay Type: Sister-chromatid exchange (SCE) in vivo, Assay Code: SCY+, Evaluation Type: Evaluation B (Post-1980)) “active; positive”; under setting [8], “active; positive”; under setting [12], “no conclusion”; under setting [13], “inactive; negative”; under setting [6], “inactive; negative”.
Turning to `Cc1cc2c(c3ccc4ccccc4c13)CCCC2C` (stereo not given), the mutagenic call under setting [11] is “no conclusion”.
On to `NCCSSCCN`, for which the mutagenic call runs as follows: under setting [2], “no conclusion”; (Species/Cell Type: Human, Assay Type: Sister-chromatid exchange (SCE) in vitro, Assay Code: SC1T, Evaluation Type: Evaluation B (Post-1980)) “no conclusion”; (Species/Cell Type: Nonhuman, Assay Type: Sister-chromatid exchange (SCE) in vitro, Assay Code: SC2+D, Dose Response: With dose response, Evaluation Type: Evaluation B (Post-1980)) “active; positive”.
In the case of `CS(=O)(=O)OCCCOS(C)(=O)=O`, the mutagenic call is, setting by setting: under setting [7], “active; positive”; (Species/Cell Type: Rat, Sex: Male, Assay Type: Sperm morphology, Assay Code: SPA+, Evaluation Type: Evaluation A (Pre-1980)) “active; positive”.
As for `NC[C@@H](O)CCl`, the mutagenic call (Species/Cell Type: Rodents, Sex: Male, Assay Type: Dominant lethal test, Assay Code: DLT-, Evaluation Type: Evaluation A (Pre-1980)) is “inactive; negative”.
In the case of `O=S1(=O)OCCCO1`, the mutagenic call under setting [10] is “active; positive”; the mutagenic call (Species/Cell Type: Salmonella typhimurium, Assay Type: Forward and reverse gene mutation, host-mediated assay, Assay Code: HMA+, Evaluation Type: Evaluation A (Pre-1980)) was “active; positive”.
Take `Cc1cc2c(C)c3ccccc3c(C)c2c2ccccc12`: where the note is “Species/Cell Type: Chinese hamster lung (V79) cells, Assay Type: Forward gene mutation at the HPRT or ouabain locus, Assay Code: V79-*, Activation: With metabolic activation, Evaluation Type: Evaluation A (Pre-1980)”, the mutagenic call was “inactive; negative”.

These data come from PubChem BioAssay AID1259408 (Genetic Toxicology Data Bank (GENE-TOX), 2018).
